Measured values: US10538532B2, “Hepatitis B antiviral agents” (ENANTA PHARMACEUTICALS, INC., priority 2016, dated 2020)

What follows are compounds tested on HBV (assay: HepAD38 antiviral assay: reduction of viral product accumulation (virion DNA by qPCR, HBsAg or HBeAg by ELISA)). Details: HepAD38 cells, five days after compound addition; concentration reducing viral product accumulation by 50% relative to no drug controls; read-out: HepAD38 EC50.
Assay type: cell-based, hepatitis B virus
Description: Methods: HepAD38 cells are maintained as previously reported (Ladner et al, Antimicrob. Agents Chemother. 1997, […], 1715). Briefly, cells are passaged upon attaining confluency in DMEM/F12 media in the presence of 10% FBS, Penn/Strep, 250 μg/mL G418, and 1 ug/ml tetracycline. Novel compounds are screened by first washing cells three times with PBS to remove tetracycline, and plating in 96 well plates at 35,000 cells/well. Compounds dissolved in DMSO are then diluted 1:200 into wells containing cells. Five days after compound addition, material is harvested for analysis. For an extended 8 day analysis, cells are plated and treated as described above, but media and compound are refreshed on d2 and d5 post initial treatment.
On harvest day, virion DNA is obtained by lysing with Sidestep Lysis and Stabilization Buffer and then quantified via quantitative real time PCR. Commercially available ELISA kits are used to quantitate the viral proteins HBsAg (Alpco) or HbeAg (US Biological) by following the manufacturer's recommended protocol after diluting samples to match the linear range of their respective assays. Irrespective of readout, compound concentrations that reduce viral product accumulation in the cell lysates or supernatants by 50% relative to no drug controls (EC50) are reported; EC50 ranges are as follows: A<0.1 μM; B 0.1-0.4 μM; C>0.4 μM.
For O=C(Nc1cc(F)c(F)c(F)c1)c1ccc(Cl)c(S(=O)(=O)C2CC3CCC(C2)C3=O)c1 (centres unmarked) [Example 245], the EC50 was 100 to 400 nM. With O=C(Nc1cc(F)c(F)c(F)c1)c1ccc(Cl)c(S(=O)(=O)[C@H]2CC3CCC(C2)[C@@H]3O)c1 [Example 360] the EC50 was < 100 nM.

Same assay, conditions: Hepatitis B virus, HePAD38, 120 h, HepAD38 cells, five days after compound addition; concentration reducing viral product accumulation by 50% relative to no drug controls; read-out: HepAD38 EC50
CC(C)(O)[C@]1(O)CC2CC[C@@H](C1)[C@H]2S(=O)(=O)c1cc(C(=O)Nc2cc(F)c(F)c(F)c2)ccc1Cl [Example 151] was tested, and the EC50 was < 100 nM. With COC(=O)C1=CON(Cc2ccccc2)C1[C@]1(O)CC2CC[C@@H](C1)[C@H]2S(=O)(=O)c1cc(C(=O)Nc2cc(F)c(F)c(F)c2)ccc1Cl (some centres unmarked) [Example 215] the EC50 was > 400 nM. With O=C(Nc1cc(F)c(F)c(F)c1)c1ccc(Cl)c(S[C@H]2CC3CCC(C2)[C@@H]3O)c1 [Example 190] the EC50 was > 400 nM. O=C(Nc1cc(F)c(F)c(F)c1)c1ccc(Cl)c(S(=O)(=O)Cc2ccccc2)c1 [Example 27] was tested, and the EC50 was > 400 nM. With O=C(Nc1cc(F)c(F)c(F)c1)c1ccc(Cl)c(S[C@H]2CC3CCC(C2)[C@H]3O)c1 [Example 191] the EC50 was > 400 nM. With O=C(Nc1cc(F)c(F)c(F)c1)c1ccc(Cl)c(S(=O)(=O)[C@H]2C3CC[C@H]2CC(O)C(O)C3)c1 (some centres unmarked) [Example 120] the EC50 was < 100 nM. CC1(C)O[C@@H]2[C@@H](CS(=O)(=O)c3cc(C(=O)Nc4cc(F)c(F)c(F)c4)ccc3Cl)OC(=O)[C@@H]2O1 [Example 100] was tested, and the EC50 was > 400 nM. With O=C(Nc1cc(F)c(F)c(F)c1)c1ccc(Cl)c(S(=O)(=O)[C@H]2C3CC[C@H]2C[C@@](O)(C#Cc2ccncc2)C3)c1 [Example 170] the EC50 was > 400 nM. With CC(C)(C)O/N=C/[C@]1(O)CC2CC[C@@H](C1)[C@H]2S(=O)(=O)c1cc(C(=O)Nc2cc(F)c(F)c(F)c2)ccc1Cl [Example 203] the EC50 was < 100 nM. For C=CCO/N=C/[C@]1(O)CC2CC[C@@H](C1)[C@H]2S(=O)(=O)c1cc(C(=O)Nc2cc(F)c(F)c(F)c2)ccc1Cl [Example 204], the EC50 was < 100 nM. For O=C(Nc1cc(F)c(F)c(F)c1)c1ccc(Cl)c(S(=O)(=O)C2CCNCC2)c1 [Example 74], the EC50 was > 400 nM. In the case of COC(=O)C1CON(C)[C@@]12CC1CC[C@@H](C2)[C@H]1S(=O)(=O)c1cc(C(=O)Nc2cc(F)c(F)c(F)c2)ccc1Cl (some centres unmarked) [Example 217], the EC50 is reported as > 400 nM. CC(C)[C@H](N)C(=O)O[C@H]1CC[C@H](S(=O)(=O)c2cc(C(=O)Nc3cc(F)c(F)c(F)c3)ccc2Cl)CC1 [Example 75] gave an EC50 of 100 to 400 nM. For O=C1CC2CC[C@@H](C1)[C@@H]2CS(=O)(=O)c1cc(C(=O)Nc2cc(F)c(F)c(F)c2)ccc1Cl [Example 179], the EC50 was < 100 nM. In the case of COC(=O)C1CON(C)[C@]12CC1CC[C@@H](C2)[C@H]1S(=O)(=O)c1cc(C(=O)Nc2cc(F)c(F)c(F)c2)ccc1Cl (some centres unmarked) [Example 218], the EC50 is reported as > 400 nM. With O=C(Nc1cc(F)c(F)c(F)c1)c1ccc(Cl)c(S(=O)(=O)[C@H]2C3CC[C@H]2C[C@](O)(COCc2ccncc2)C3)c1 [Example 316] the EC50 was 100 to 400 nM. CC1(C)OC[C@@]2(CC3CC[C@@H](C2)[C@H]3S(=O)(=O)c2cc(C(=O)Nc3ccc(F)c(F)c3)ccc2Cl)O1 [Example 126] gave an EC50 of 100 to 400 nM. O=C(Nc1cc(F)c(F)c(F)c1)c1ccc(Cl)c(S(=O)(=O)c2ccccc2)c1 [Example 82] was tested, and the EC50 was > 400 nM. O=C(Nc1cc(F)c(F)c(F)c1)c1ccc(Cl)c(S(=O)(=O)C2(CCO)CCCCC2)c1 [Example 89] was tested, and the EC50 was 100 to 400 nM. For CC(CO)NC[C@]1(O)C2CCC1C[C@@H](S(=O)(=O)c1cc(C(=O)Nc3cc(F)c(F)c(F)c3)ccc1Cl)C2 (some centres unmarked) [Example 341], the EC50 was 100 to 400 nM. In the case of O=C(Nc1cc(F)c(F)c(F)c1)c1ccc(Cl)c(S(=O)(=O)[C@H]2C3CC[C@H]2C[C@H](/C=N/O)C3)c1 [Example 229], the EC50 is reported as < 100 nM. In the case of CC(=O)N1C[C@]2(OC1(C)C)C1CCC2C[C@@H](S(=O)(=O)c2cc(C(=O)Nc3cc(F)c(F)c(F)c3)ccc2Cl)C1 [Example 346], the EC50 is reported as < 100 nM. For CNC(=O)OC[C@@H]1CC2CC[C@@H](C1)[C@H]2S(=O)(=O)c1cc(C(=O)Nc2cc(F)c(F)c(F)c2)ccc1Cl [Example 318], the EC50 was < 100 nM. In the case of C[C@]1(O)C(=O)O[C@H](CSc2cc(C(=O)Nc3cc(F)c(F)c(F)c3)ccc2Cl)[C@H]1O [Example 97], the EC50 is reported as > 400 nM.
